C=C(C)[C@@H]1CC[C@]2(C(=O)O)CC[C@]3(C)[C@H](CC[C@@H]4[C@@]5(C)CC[C@H](O)C(C)(C)[C@@H]5CC[C@]43C)[C@@H]12
solubility (mole fraction)
Conditions | 278.2 K | 288.2 K | 298.2 K | 308.2 K | 318.2 K
in THF | 0.00975 | 0.0136 | 0.0206 | 0.0276 | 0.0388
in acetone | 0.000398 | 0.000502 | 0.000598 | 0.000829 | 0.00103
in ethanol | 0.000651 | 0.000819 | 0.00107 | 0.00135 | 0.00171
in ethyl acetate | 0.00045 | 0.000515 | 0.000733 | 0.000956 | 0.00124
in ethyl formate | 0.0002 | 0.000272 | 0.000428 | 0.000548 | 0.000786
in isopropanol | 0.000765 | 0.00092 | 0.0012 | 0.00149 | 0.00196
in methanol | 0.00019 | 0.000248 | 0.000339 | 0.000461 | 0.000734
in n-butanol | 0.00118 | 0.00149 | 0.00192 | 0.00234 | 0.003
in n-butyl acetate | 0.000824 | 0.001 | 0.0012 | 0.00159 | 0.00193
in n-hexanol | 0.00226 | 0.00283 | 0.00324 | 0.00378 | 0.00454
in n-pentanol | 0.00199 | 0.00228 | 0.00266 | 0.00309 | 0.00363
in n-propanol | 0.00103 | 0.00137 | 0.00178 | 0.00221 | 0.0028
in sec-butanol | 0.000821 | 0.00113 | 0.00149 | 0.00189 | 0.00245
